Test results published in ChEMBL document CHEMBL1131004, “Optimizing the binding of fullerene inhibitors of the HIV-1 protease through predicted increases in hydrophobic desolvation” (J Med Chem, 1998).

molecular target: Human immunodeficiency virus type 1 protease (Human immunodeficiency virus 1, UniProt Q72874); experiment: Binding affinity towards HIV-1 Protease

Row | SMILES | Ki
1 | O=C(O)CCC(=O)NCCc1ccc(C2(c3ccc(CCNC(=O)CCC(=O)O)cc3)C34c5c6c7c8c9c%10c(c%11c%12c3c3c5c5c%13c6c6c7c7c9c9c%14c%10c%10c%11c%11c%12c%12c3c3c5c5c%13c%13c6c6c7c9c7c9c%14c%10c%10c%11c%11c%12c3c3c5c5c%13c6c7c6c9c%10c%11c3c56)C824)cc1 | 5000 nM
2 | OC(c1ccccc1)C1(c2ccccc2)C23c4c5c6c7c8c9c(c%10c%11c2c2c4c4c%12c5c5c6c6c8c8c%13c9c9c%10c%10c%11c%11c2c2c4c4c%12c%12c5c5c6c8c6c8c%13c9c9c%10c%10c%11c2c2c4c4c%12c5c6c5c8c9c%10c2c45)C731 (stereo not drawn) | 103 nM
3 | CC(C)C1CC(O)C(C(C)C)C23c4c5c6c7c8c9c(c%10c%11c2c2c4c4c%12c5c5c6c6c8c8c%13c9c9c%10c%10c%11c%11c2c2c4c4c%12c%12c5c5c6c8c6c8c%13c9c9c%10c%10c%11c2c2c4c4c%12c5c6c5c8c9c%10c2c45)C713 (stereo not drawn) | 150 nM
